Experimental data taken from patent publication US6914045B2, “Glycopeptide antibiotics” (Wyeth Holdings Corporation, priority 2001, dated 2005).
Values after ≈ are worked out from the molar mass of the structure shown.

Experiments:
Assay in all cases: in vitro antibacterial evaluation, MIC by broth dilution
Assay type in all cases: cell-based
[1] = test system: Streptococcus sp.; details: broth dilution, 18 hours at 35° C.
In short: (§1)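 Broth dilution per NCCLS standard M7-A2 in Muller-Hinton II […], with an inoculum of 5×10^5 CFU/mL and antibiotic spanning 64-0.06 μg/mL. The MIC is the lowest concentration that inhibits growth of the organism.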

[2] = test system: Escherichia coli; details: 18 hours at 35° C.
In short: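 Following National Committee for Clinical Laboratory Standards recommendations (M7-A2), susceptibility was measured by dilution in Muller-Hinton II […]. Bacteria were seeded at 5×10^5 CFU/mL against compound concentrations from 64 down to 0.06 μg/mL.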

[3] = test system: Enterococcus sp.; details: broth dilution, 18 hours at 35° C.
In short: as §1

[4] = test system: Staphylococcus sp.; details: broth dilution, 18 hours at 35° C.
In short: as §1

[5] = Enterococcus faecalis (ATCC 29212)
[6] = Enterococcus faecalis (GC 4553)
[7] = Enterococcus faecalis (GC 4554)

For `CC(c1ccccc1)C1NC(=O)CNC(=O)C(CO)NC(=O)C(C(O)C2CNC(=N)N2C2OC(CO)C(O)C(O)C2O)NC(=O)C(C(O)C2CNC(=N)N2)NC(=O)C(Cc2ccc(OC3OC(CO)C(OC4OC(COC(=O)NCc5ccccc5)C(O)C(O)C4O)C(O)C3O)cc2)NC1=O` (stereo not shown) [Example 257b], the “MIC Streptococcus agalactiae (GC 4564)” value [1] was 1 µg/mL (≈ 0.7 µM), the “MIC Streptococcus pneumoniae (ATCC 6301)” value [1] was 0.25 µg/mL (≈ 0.175 µM) and the “MIC Streptococcus pneumoniae (GC 1894)” value [1] was 0.25 µg/mL (≈ 0.175 µM). The “MIC Streptococcus pneumoniae (GC 4565)” value [1] was 0.5 µg/mL (≈ 0.35 µM), the “MIC Streptococcus pyogenes (GC 4563)” value [1] was 0.12 µg/mL (≈ 0.084 µM) and the “MIC Streptococcus pneumoniae (ATCC 6301)” value ([1]; strain ATCC 6301) was 0.25 µg/mL (≈ 0.175 µM). The “MIC Streptococcus pneumoniae (GC 1894)” value ([1]; strain GC 1894) was 0.25 µg/mL (≈ 0.175 µM), the “MIC Streptococcus pyogenes (GC 4563)” value ([1]; strain GC 4563) was 0.12 µg/mL (≈ 0.084 µM) and the “MIC Streptococcus agalactiae (GC 4564)” value ([1]; strain GC 4564) was 1 µg/mL (≈ 0.7 µM). The “MIC Streptococcus pneumoniae (GC 4565)” value ([1]; strain GC 4565) was 0.5 µg/mL (≈ 0.35 µM), the “MIC Escherichia coli (ATCC 25922)” value [2] was over 0.5 µg/mL and the “MIC Escherichia coli (GC 4559)” value [2] was over 0.5 µg/mL. For the same molecule, the “MIC Escherichia coli (GC 4560)” value [2] was 0.5 µg/mL (≈ 0.35 µM), the “MIC Enterococcus avium (GC 4558)” value ([3]; Enterococcus avium (GC 4558)) was 0.5 µg/mL (≈ 0.35 µM) and the “MIC Enterococcus faecalis (ATCC 29212)” value [3, 5] was 0.5 µg/mL (≈ 0.35 µM). For the same molecule, the “MIC Enterococcus faecalis (GC 4553)” value [3, 6] was 0.5 µg/mL (≈ 0.35 µM), the “MIC Enterococcus faecalis (GC 4554)” value [3, 7] was over 0.5 µg/mL and the “MIC Enterococcus faecalis (GC 6189)” value ([3]; Enterococcus faecalis (GC 6189)) was 0.5 µg/mL (≈ 0.35 µM). The “MIC Enterococcus faecium (GC 2243)” value ([3]; Enterococcus faecium (GC 2243)) was 16 µg/mL (≈ 11.2 µM), the “MIC Enterococcus faecium (GC 4556)” value ([3]; Enterococcus faecium (GC 4556)) was 16 µg/mL (≈ 11.2 µM) and the “MIC Enterococcus faecium (GC 4557)” value ([3]; Enterococcus faecium (GC 4557)) was 2 µg/mL (≈ 1.4 µM). For the same molecule, the “MIC Enterococcus faecalis (GC 2242)” value [3] was 0.5 µg/mL (≈ 0.35 µM), the “MIC Enterococcus faecalis (GC 2691)” value [3] was 0.5 µg/mL (≈ 0.35 µM) and the “MIC Enterococcus faecalis (GC 3059)” value [3] was 0.5 µg/mL (≈ 0.35 µM). For the same molecule, the “MIC Enterococcus faecalis (GC 4552)” value [3] was over 0.5 µg/mL, the “MIC Enterococcus faecalis (ATCC 29212)” value ([3]; strain ATCC 29212) was 0.5 µg/mL (≈ 0.35 µM) and the “MIC Enterococcus faecalis (GC 2242)” value ([3]; strain GC 2242) was 0.5 µg/mL (≈ 0.35 µM). The “MIC Enterococcus faecium (GC 2243)” value ([3]; strain GC 2243) was 16 µg/mL (≈ 11.2 µM), the “MIC Enterococcus faecalis (GC 2691)” value ([3]; strain GC 2691) was 0.5 µg/mL (≈ 0.35 µM) and the “MIC Enterococcus faecalis (GC 3059)” value ([3]; strain GC 3059) was 0.5 µg/mL (≈ 0.35 µM). The “MIC Enterococcus faecalis (GC 4552)” value ([3]; strain GC 4552) was over 0.5 µg/mL, the “MIC Enterococcus faecalis (GC 4553)” value ([3]; strain GC 4553) was 0.5 µg/mL (≈ 0.35 µM) and the “MIC Enterococcus faecalis (GC 4554)” value ([3]; strain GC 4554) was over 0.5 µg/mL. For the same molecule, the “MIC Enterococcus faecium (GC 4556)” value ([3]; strain GC 4556) was 16 µg/mL (≈ 11.2 µM), the “MIC Enterococcus faecium (GC 4557)” value ([3]; strain GC 4557) was 2 µg/mL (≈ 1.4 µM) and the “MIC Enterococcus avium (GC 4558)” value ([3]; strain GC 4558) was 0.5 µg/mL (≈ 0.35 µM). The “MIC Enterococcus faecalis (GC 6189)” value ([3]; strain GC 6189) was 0.5 µg/mL (≈ 0.35 µM), the “MIC Coagulase Negative Staphylococcus (GC 4547)” value [4] was 2 µg/mL (≈ 1.4 µM) and the “MIC Coagulase Negative Staphylococcus (GC 4548)” value [4] was 2 µg/mL (≈ 1.4 µM). For the same molecule, the “MIC Coagulase Negative Staphylococcus (GC 4549)” value [4] was 2 µg/mL (≈ 1.4 µM), the “MIC Coagulase Negative Staphylococcus (GC 4551)” value [4] was 4 µg/mL (≈ 2.8 µM) and the “MIC Coagulase Negative Staphylococcus (GC 6257)” value [4] was 1 µg/mL (≈ 0.7 µM). The “MIC Staphylococcus aureus (ATCC 29213)” value [4] was 0.5 µg/mL (≈ 0.35 µM), the “MIC Staphylococcus aureus (GC 1131)” value [4] was 0.5 µg/mL (≈ 0.35 µM) and the “MIC Staphylococcus aureus (GC 3051)” value [4] was 0.5 µg/mL (≈ 0.35 µM). The “MIC Staphylococcus aureus (GC 3053)” value [4] was 0.5 µg/mL (≈ 0.35 µM), the “MIC Staphylococcus aureus (GC 4541)” value [4] was 0.5 µg/mL (≈ 0.35 µM) and the “MIC Staphylococcus aureus (GC 4542)” value [4] was 0.5 µg/mL (≈ 0.35 µM). For the same molecule, the “MIC Staphylococcus aureus (GC 4544)” value [4] was 0.5 µg/mL (≈ 0.35 µM), the “MIC Staphylococcus aureus (GC 4545)” value [4] was 0.5 µg/mL (≈ 0.35 µM) and the “MIC Staphylococcus aureus-SMITH (GC 4543)” value [4] was 0.5 µg/mL (≈ 0.35 µM). The “MIC Staphylococcus haemolyticus (GC 4546)” value [4] was 2 µg/mL (≈ 1.4 µM), the “MIC Staphylococcus aureus (ATCC 29213)” value ([4]; strain ATCC 29213) was 0.5 µg/mL (≈ 0.35 µM) and the “MIC Staphylococcus aureus (GC 1131)” value ([4]; strain GC 1131) was 0.5 µg/mL (≈ 0.35 µM). For the same molecule, the “MIC Staphylococcus aureus (GC 3051)” value ([4]; strain GC 3051) was 0.5 µg/mL (≈ 0.35 µM), the “MIC Staphylococcus aureus (GC 3053)” value ([4]; strain GC 3053) was 0.5 µg/mL (≈ 0.35 µM) and the “MIC Staphylococcus aureus (GC 4541)” value ([4]; strain GC 4541) was 0.5 µg/mL (≈ 0.35 µM). The “MIC Staphylococcus aureus (GC 4542)” value ([4]; strain GC 4542) was 0.5 µg/mL (≈ 0.35 µM), the “MIC Staphylococcus aureus (GC 4544)” value ([4]; strain GC 4544) was 0.5 µg/mL (≈ 0.35 µM) and the “MIC Staphylococcus aureus (GC 4545)” value ([4]; strain GC 4545) was 0.5 µg/mL (≈ 0.35 µM).

`CC(c1ccc(F)cc1)C1NC(=O)CNC(=O)C(CO)NC(=O)C(C(O)C2CNC(=N)N2C2OC(CO)C(O)C(O)C2O)NC(=O)C(C(O)C2CNC(=N)N2)NC(=O)C(Cc2ccc(OC3OC(CO)C(OC4OC(CO)C(O)C(O)C4O)C(O)C3O)cc2)NC1=O` (stereo not drawn) [Example 261a, Cyclo[glycyl-4-fluoro-β-methylphenylalanyl-O-(4-O-hexopyranosylhexopyranosyl)tyrosyl-3-(2-iminoimidazolidin-4-yl)seryl-3-(3-hexopyranosyl-2-iminoimidazolidin-4-yl)serylseryl]] was tested, and the “MIC Streptococcus agalactiae (GC 4564)” value [1] was over 64 µg/mL, the “MIC Streptococcus pyogenes (ID-3187)” value [1] was over 64 µg/mL and the “MIC Streptococcus agalactiae (GC 4564)” value ([1]; strain GC 4564) was over 64 µg/mL. The “MIC Streptococcus pyogenes (ID-3187)” value ([1]; strain ID-3187) was over 64 µg/mL, the “MIC Escherichia coli (ATCC 25922)” value [2] was over 64 µg/mL and the “MIC Escherichia coli (GC 4559)” value [2] was over 64 µg/mL. The “MIC Escherichia coli (GC 4560)” value [2] was over 64 µg/mL, the “MIC Enterococcus avium (GC 4558)” value ([3]; Enterococcus avium (GC 4558)) was over 64 µg/mL and the “MIC Enterococcus faecalis (ATCC 29212)” value [3, 5] was over 64 µg/mL. For the same molecule, the “MIC Enterococcus faecalis (GC 4553)” value [3, 6] was over 64 µg/mL, the “MIC Enterococcus faecalis (GC 4554)” value [3, 7] was over 64 µg/mL and the “MIC Enterococcus faecium (GC 2243)” value ([3]; Enterococcus faecium (GC 2243)) was over 64 µg/mL. For the same molecule, the “MIC Enterococcus faecium (GC 4556)” value ([3]; Enterococcus faecium (GC 4556)) was over 64 µg/mL, the “MIC Enterococcus faecium (GC 4557)” value ([3]; Enterococcus faecium (GC 4557)) was over 64 µg/mL and the “MIC Enterococcus faecalis (GC 2242)” value [3] was over 64 µg/mL. For the same molecule, the “MIC Enterococcus faecalis (GC 4552)” value [3] was over 64 µg/mL, the “MIC Enterococcus faecalis (ATCC 29212)” value ([3]; strain ATCC 29212) was over 64 µg/mL and the “MIC Enterococcus faecalis (GC 2242)” value ([3]; strain GC 2242) was over 64 µg/mL. For the same molecule, the “MIC Enterococcus faecium (GC 2243)” value ([3]; strain GC 2243) was over 64 µg/mL, the “MIC Enterococcus faecalis (GC 4552)” value ([3]; strain GC 4552) was over 64 µg/mL and the “MIC Enterococcus faecalis (GC 4553)” value ([3]; strain GC 4553) was over 64 µg/mL. For the same molecule, the “MIC Enterococcus faecalis (GC 4554)” value ([3]; strain GC 4554) was over 64 µg/mL, the “MIC Enterococcus faecium (GC 4556)” value ([3]; strain GC 4556) was over 64 µg/mL and the “MIC Enterococcus faecium (GC 4557)” value ([3]; strain GC 4557) was over 64 µg/mL. The “MIC Enterococcus avium (GC 4558)” value ([3]; strain GC 4558) was over 64 µg/mL, the “MIC Coagulase Negative Staphylococcus (GC 4547)” value [4] was over 64 µg/mL and the “MIC Coagulase Negative Staphylococcus (GC 4548)” value [4] was over 64 µg/mL. The “MIC Coagulase Negative Staphylococcus (GC 4549)” value [4] was over 64 µg/mL, the “MIC Coagulase Negative Staphylococcus (GC 4551)” value [4] was over 64 µg/mL and the “MIC Staphylococcus aureus (ATCC 29213)” value [4] was over 64 µg/mL. The “MIC Staphylococcus aureus (GC 1131)” value [4] was over 64 µg/mL, the “MIC Staphylococcus aureus (GC 4541)” value [4] was over 64 µg/mL and the “MIC Staphylococcus aureus (GC 4542)” value [4] was over 64 µg/mL. For the same molecule, the “MIC Staphylococcus aureus (GC 4544)” value [4] was over 64 µg/mL, the “MIC Staphylococcus aureus (GC 4545)” value [4] was over 64 µg/mL and the “MIC Staphylococcus aureus-SMITH (GC 4543)” value [4] was over 64 µg/mL. For the same molecule, the “MIC Staphylococcus haemolyticus (GC 4546)” value [4] was over 64 µg/mL, the “MIC Staphylococcus aureus (ATCC 29213)” value ([4]; strain ATCC 29213) was over 64 µg/mL and the “MIC Staphylococcus aureus (GC 1131)” value ([4]; strain GC 1131) was over 64 µg/mL. The “MIC Staphylococcus aureus (GC 4541)” value ([4]; strain GC 4541) was over 64 µg/mL, the “MIC Staphylococcus aureus (GC 4542)” value ([4]; strain GC 4542) was over 64 µg/mL and the “MIC Staphylococcus aureus (GC 4544)” value ([4]; strain GC 4544) was over 64 µg/mL. For the same molecule, the “MIC Staphylococcus aureus (GC 4545)” value ([4]; strain GC 4545) was over 64 µg/mL.
